One experiment addresses T1, Tie-2 (Homo sapiens, UniProt Q02763).
T1 construct: fusion protein of GST and the intracellular domains of Tie-2; GST; made in house; host or cells: insect cells (Hi-5)
Description: Tie-2-Kinase HTRF-Assay (assay 2). The experiment is classed as biochemical. Particulars: pIC50 class; 10 μM ATP; read-out: Enzymatic Tie 2 activity (assay 2). From the text: Tie2-inhibitory activity of compounds of the present invention was quantified employing two Tie2 HTRF assay as described in the following paragraphs.
A recombinant fusion protein of GST and the intracellular domains of Tie-2, expressed in insect cells (Hi-5) and purified by Glutathion-Sepharose affinity chromatography was used as kinase. Alternatively, commercially available GST-Tie2-fusion protein (Upstate Biotechnology, Dundee, Scotland) can be used As substrate for the kinase reaction the biotinylated peptide biotin-Ahx-EPKDDAYPLYSDFG (C-terminus in amid form) was used which can be purchased e.g. from the company Biosynthan GmbH (Berlin-Buch, Germany). Detection of phosphorylated product is achieved specifically by a trimeric detection complex consisting of the phosphorylated substrate, streptavidin-XLent (SA-XLent) which binds to biotin, and Europium Cryptate-labeled anti-phosphotyrosine antibody PT66 which binds to phosphorylated tyrosine.
Tie-2 (3.5 ng/measurement point) was incubated for 60 min at 22° C. in the presence of 10 μM adenosine-tri-phosphate (ATP) and 1 μM substrate peptide (biotin-Ahx-EPKDDAYPLYSDFG-NH2) with different concentrations of test compounds (0 μM and concentrations in the range 0.001-20 μM) in 5 μl assay buffer [50 mM Hepes/NaOH pH 7, 10 mM MgCl2, 0.5 mM MnCl2, 1.0 mM dithiothreitol, 0.01% NP40, protease inhibitor mixture (“Complete w/o EDTA” from Roche, 1 tablet per 2.5 ml), 1% (v/v) dimethylsulfoxide]. The reaction was stopped by the addition of 5 μl of an aqueous buffer (25 mM Hepes/NaOH pH 7.5, 0.28% (w/v) bovine serum albumin) containing EDTA (90 mM) and the HTRF (Homogeneous Time Resolved Fluorescence) detection reagents streptavidine-XLent (0.2 μM, from Cis Biointemational, Marcoule, France) and PT66-Eu-Chelate (0.3 ng/μl; a europium-chelate labelled anti-phospho-tyrosine antibody from Perkin Elmer).
(§1) The resulting mixture was incubated 1 h at 22° C. to allow the binding of the biotinylated phosphorylated peptide to the streptavidine-XLent and the PT66-Eu-Chelate. Subsequently the amount of phosphorylated substrate peptide was evaluated by measurement of the resonance energy transfer from the PT66-Eu-Chelate to the streptavidine-XLent. Therefore, the fluorescence emissions at 620 nm and 665 nm after excitation at 350 nm was measured in a HTRF reader, e.g. a Rubystar (BMG Labtechnologies, Offenburg, Germany) or a Viewlux (Perkin-Elmer). The ratio of the emissions at 665 nm and at […] was taken as the measure for the amount of phosphorylated substrate peptide. The data were normalised (enzyme reaction without inhibitor=0 (% inhibition, all other assay components but no enzyme=100% inhibition) and IC50 values were calculated by a 4 parameter fit using an inhouse software.
In general terms: In TR-FRET formats the signal depends on donor and acceptor labels being close together.

In another experiment the target is T2, human PDGFRβ (Homo sapiens, UniProt P09619).
T2 construct: C-terminal fragment of human PDGFRβ (amino acids 561-1106); GST; His; purchased Proqinase [Freiburg i.Brsg., Germany]; host or cells: insect cells [SF9]
Description: PDGFRβ HTRF Assay (assay 6). The experiment is classed as biochemical. Particulars: pIC50 class; 10 μM ATP; read-out: Enzymatic PDGFRβ activity (assay 6).
From the text: Assay 6: PDGFRβ HTRF Assay
PDGFRβ inhibitory activity of compounds of the present invention was quantified employing the PDGFRβ HTRF assay as described in the following paragraphs.
As kinase, a GST-His fusion protein containing a C-terminal fragment of human PDGFRβ (amino acids 561-1106, expressed in insect cells [SF9] and purified by affinity chromatography, purchased from Proqinase [Freiburg i.Brsg., Germany] was used. As substrate for the kinase reaction the biotinylated poly-Glu, Tyr (4:1) copolymer (#61GT0BLA) from Cis Biointernational (Marcoule, France) was used.
For the assay 50 nl of a 100 fold concentrated solution of the test compound in DMSO was pipetted into a black low volume 384 well microtiter plate (Greiner Bio-One, Frickenhausen, Germany), 2 μl of a solution of PDGFRβ in aqueous assay buffer [50 mM HEPES/NaOH pH 7.5, 10 mM MgCl2, 2.5 mM dithiothreitol, 0.01% (v/v) Triton-X100 (Sigma)] were added and the mixture was incubated for 15 min at 22° C. to allow pre-binding of the test compounds to the enzyme before the start of the kinase reaction. Then the kinase reaction was started by the addition of 3 μl of a solution of adenosine-tri-phosphate (ATP, 16.7 μM=>final conc. in the 5 μl assay volume is 10 μM) and substrate (2.27 μg/ml=>final conc. in the 5 μl assay volume is 1.36 μg/ml [˜30 nM]) in assay buffer and the resulting mixture was incubated for a reaction time of 25 min at 22° C. The concentration of PDGFRβ in the assay was adjusted depending of the activity of the enzyme lot and was chosen appropriate to have the assay in the linear range, typical enzyme concentrations were in the range of about 125 pg/μl (final conc. in the 5 μl assay volume). The reaction was stopped by the addition of 5 μl of a solution of HTRF detection reagents (200 nM streptavidine-XLent [Cis Biointernational] and 1.4 nM PT66-Eu-Chelate, an europium-chelate labelled anti-phospho-tyrosine antibody from Perkin Elmer) in an aqueous EDTA-solution (100 mM EDTA, 0.2% (w/v) bovine serum albumin in 50 mM HEPES/NaOH pH 7.5).
as §1, with “substrate” for “substrate peptide”, “substrate. […]” for “substrate peptide. The data were normalised (enzyme reaction without inhibitor=0 (% inhibition, all other assay components but no enzyme=100% inhibition) and IC50 values were calculated by a 4 parameter fit using an inhouse software.”

SMILES strings stand for the structures.

T2 sequence (P09619 561-1106): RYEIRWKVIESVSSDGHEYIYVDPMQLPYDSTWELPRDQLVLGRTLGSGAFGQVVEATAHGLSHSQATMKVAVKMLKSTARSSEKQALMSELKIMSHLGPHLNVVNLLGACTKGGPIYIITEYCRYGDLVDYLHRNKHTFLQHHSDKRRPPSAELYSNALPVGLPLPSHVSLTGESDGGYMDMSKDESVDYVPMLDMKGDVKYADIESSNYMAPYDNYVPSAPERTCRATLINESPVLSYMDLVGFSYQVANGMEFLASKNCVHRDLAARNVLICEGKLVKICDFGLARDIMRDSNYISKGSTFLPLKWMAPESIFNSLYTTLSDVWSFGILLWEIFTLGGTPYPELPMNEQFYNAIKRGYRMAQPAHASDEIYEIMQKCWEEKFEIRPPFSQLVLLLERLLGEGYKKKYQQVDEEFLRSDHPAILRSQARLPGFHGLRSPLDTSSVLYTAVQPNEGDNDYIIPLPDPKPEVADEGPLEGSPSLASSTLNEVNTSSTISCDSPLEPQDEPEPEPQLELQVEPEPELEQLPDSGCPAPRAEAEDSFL
T1 sequence (Q02763 770-1124 limits assumed, species assumed): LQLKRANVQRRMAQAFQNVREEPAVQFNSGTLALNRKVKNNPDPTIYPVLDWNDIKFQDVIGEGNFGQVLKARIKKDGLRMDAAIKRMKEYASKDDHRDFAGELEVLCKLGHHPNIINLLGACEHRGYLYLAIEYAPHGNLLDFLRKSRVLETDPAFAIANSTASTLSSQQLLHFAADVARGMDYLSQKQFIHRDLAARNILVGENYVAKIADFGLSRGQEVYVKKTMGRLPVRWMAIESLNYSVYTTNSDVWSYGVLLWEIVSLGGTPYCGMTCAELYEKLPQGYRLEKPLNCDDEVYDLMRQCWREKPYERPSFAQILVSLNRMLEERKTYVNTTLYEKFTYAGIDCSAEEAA

For `Cn1ncc2c(C#Cc3cc(NC(=O)c4cccc(C(F)(F)F)c4)ccc3F)cncc21` [Example 1.9, N-[4-Fluoro-3-(1-methyl-1H-pyrazolo[3,4-c]pyridin-4-ylethynyl)-phenyl]-3-trifluoromethyl-benzamide], the IC50 at Tie-2 was below 1000 nM.
Take `Cc1ccc(NC(=O)c2cccc(C(F)(F)F)c2)cc1C#Cc1cncc2c1cnn2C` [Example 1.6, N-[4-Methyl-3-(1-methyl-1H-pyrazolo[3,4-c]pyridin-4-ylethynyl)-phenyl]-3-trifluoromethyl-benzamide]: the IC50 at Tie-2 and at human PDGFRβ was below 1000 nM each time.
As to `Cc1ccc(NC(=O)Nc2cccc(C(F)(F)F)c2)cc1C#Cc1cncc2c1cnn2C` [Example 2.4, 1-[4-Methyl-3-(1-methyl-1H-pyrazolo[3,4-c]pyridin-4-ylethynyl)-phenyl]-3-(3-trifluoromethyl-phenyl)-urea], the IC50 at Tie-2 and at human PDGFRβ was below 1000 nM in each case.
For `Cn1ncc2c(C#Cc3cccc(NC(=O)c4cccc(C(F)(F)F)c4)c3)cncc21` [Example 1.5, N-[3-(1-Methyl-1H-pyrazolo[3,4-c]pyridin-4-ylethynyl)-phenyl]-3-trifluoromethyl-benzamide], the IC50 at Tie-2 and on human PDGFRβ was below 1000 nM throughout.
Regarding `Cn1ncc2c(C#Cc3cccc(NC(=O)Nc4ccccc4)c3)cncc21` [Example 2.1, 1-[3-(1-Methyl-1H-pyrazolo[3,4-c]pyridin-4-ylethynyl)-phenyl]-3-phenyl-urea], the IC50 on Tie-2 and on human PDGFRβ was below 1000 nM throughout.

Source of the values: patent US8481539B2, “Alkynylaryl compounds and salts thereof, pharmaceutical compositions comprising same, methods of preparing same and uses of same” (Bayer Intellectual Property GmbH, priority 2007, dated 2013).
